Assay results taken from patent publication US11951202B2, “Compounds and compositions for use” (DR WELLER LIMITED, priority 2016, dated 2024).

Test system: full thickness human skin homogenate
Assay: In vitro NO generation by NO specific Clarke-type electrode, UVA-irradiated skin homogenate
Format: biochemical
Settings: UVA radiation, nitrite source
From the text: Electrochemical sensors are widely used for the measurement of NO generation and Clark-type electrodes are most widely used as they are commercially available and easy to handle. The principle of these sensors is that NO diffuses through a gas-permeable membrane and a thin film of electrolyte, followed by oxidation on the working electrode. This oxidation creates a current that is proportional to the concentration of NO outside the membrane. The advantage of electrochemical NO sensors is the ability to directly detect NO concentration in solution or in biological samples with a low nanomolar detection limit. This makes NO electrodes an excellent tool for studying NO generation especially in biological samples.
We used the Clarke electrode technique to investigate the mechanism of UVA light dependent NO generation in skin and cosmetically acceptable components which could facilitate augment the endogenous process.
A 10% (g/mL) full thickness human skin homogenate in phosphate buffer was prepared using a glass/glass homogenizer. The homogenate was preheated at 56° C. for 1 hour to inactivate enzymatic generation of NO.
200 ul of homogenate was placed in a quartz cuvette in a thermostatically controlled environment and irradiated with broadband (320-400 nm) UVA radiation. Baseline signals were recorded. […]

Structure (SMILES) | sustained UV induced NO generation from nitrite
O=C(O)CCCCC1CCSS1 (centres unmarked) [Lipoic acid (Oxidised), Lipoic acid] | able to participate in sustained NO generation
N[C@@H](CSSC[C@H](N)C(=O)O)C(=O)O [Cystine] | able to participate in sustained NO generation
